Measurements reported in paper PMC7898037, “Improving mitochondria and ER stability helps eliminate upper motor neuron degeneration that occurs due to mSOD1 toxicity and TDP‐43 pathology” (Clinical and Translational Medicine, 2021).

Key:
[1] = parameters: method as in PMID 22189273, PMID 22837812; conditions: cited from earlier work
[2] = test system: UMN apical dendrites of hSOD1^G93A‐UeGFP mice; assay: UMN apical dendrites with vacuoles, hSOD1^G93A‐UeGFP mice; format: in vivo; conditions: for Mean, Fig. 4G (UMN apical dendrites with vacuoles): hSOD1G93A-UeGFP mice; for percentage of UMNs with vacuolated apical dendrites: hSOD1^G93A‐UeGFP mice
Method: (§1) hSOD1^G93A‐UeGFP, prpTDP‐43^A315T‐UeGFP and WT‐UeGFP mice were weighed and the required NU‐9 dose per weight was calculated (20 or 100 mg/kg), which was administered once daily by oral gavage, starting at postnatal day (P)60 and continuing until P120. Animals from the untreated group received the vehicle (NMP and olive oil) only. For oral administration purposes, 20 ga × 38 mm plastic feeding tubes were used (Instech Laboratories, Inc). The gavage tip was inserted into the mouth directly over the tongue and into the pharynx. While observing the swallowing reflex, the tip was safely and smoothly slid into the esophagus. Once the administration was completed, the gavage tip was pulled straight out.
Mice were deeply anesthetized using ketamine (90 mg/kg) with xylazine (10 mg/kg), and transcardially perfused with 4% PFA in PBS. The brains were removed intact and postfixed (4% PFA, overnight) and stored in PBS with sodium azide (0.01%) at 4°C. Sections were cut in a coronal (50 µm) plane using a vibratome (Leica) and processed for immunocytochemical analyses.
The antibodies used are as follows: anti‐GFP (1:1000, Invitrogen; or 1:1000, Abcam) and anti‐misfolded SOD1 (B8H10, 1:250, Médimabs). Briefly, sections were treated with blocking solution (PBS, 0.05% BSA, 2% FBS, 1% Triton X‐100, and 0.1% saponin) for 30 min at room temperature and incubated with primary antibody diluted in blocking solution overnight at 4°C. Appropriate secondary fluorescent antibodies (1:500, AlexaFluor‐conjugated, Invitrogen) were added to the blocking solution at room temperature for 2 h in the dark.

[3] = test system: prpTDP‐43^A315T‐UeGFP mice; assay: Rotarod test, prpTDP‐43^A315T‐UeGFP mice; format: in vivo; conditions: for Rotarod, Predicted (LS) mean: prpTDP-43A315T-UeGFP (NU-9 100 mg/kg/day); for Rotarod, Average: prpTDP-43A315T-UeGFP, NU-9 100 mg/kg/day po
Method: as §1
Behavior data were collected from hSOD1^G93A‐UeGFP and WT‐UeGFP mice (starting at P60 and every 7 days until P116) and from prpTDP‐43^A315T‐UeGFP mice (at P60, P90, and P120) with the following number of mice for each group: WT‐UeGFP vehicle (n = 10), hSOD1^G93A‐UeGFP vehicle (n = 6), WT‐UeGFP 20 mg/kg/day NU‐9 (n = 5), hSOD1^G93A‐UeGFP 20 mg/kg/day NU‐9 (n = 7), WT‐UeGFP 100 mg/kg/day NU‐9 (n = 11), hSOD1^G93A‐UeGFP 100 mg/kg/day NU‐9 (n = 9), prpTDP‐43^A315T‐UeGFP untreated (n ≥ 3), and prpTDP‐43^A315T‐UeGFP 100 mg/kg/day NU‐9 (n = 4) (Table S3).
Mice were placed on a rotating rod that accelerates linearly from 4 to 40 rpm (Rotarod, Ugo Basile), and the average time spent on the rotating rod for three consecutive trials was calculated for each mouse. Mice were allowed to run for a maximum of 5 min with a 5 min rest period between each run, and the latency to fall was recorded for three consecutive trials. The average of the three trials was taken as the data point for each mouse at the age tested, and the performance of different groups are reported as the mean ± SEM.

C[C@H](Oc1cc(C(F)(F)F)cc(C(F)(F)F)c1)C1CC(=O)CC(=O)C1 [NU‐9]
PAMPA‐BBB P e [1]: 8.11 × 10^–6 cm/s
PAMPA‐BBB classification [1]: CNS+
Mean, Fig. 4G (UMN apical dendrites with vacuoles) ([2]; NU-9 20 mg/kg/day): 43.86
Mean, Fig. 4G (UMN apical dendrites with vacuoles) ([2]; NU-9 100 mg/kg/day): 23.28
Mean Diff., Fig. 4G, GS Vehicle vs. GS NU-9 (20) ([2]; hSOD1G93A-UeGFP vehicle minus NU-9 20 mg/kg/day, Tukey's multiple comparisons test): 32.38
Mean Diff., Fig. 4G, GS Vehicle vs. GS NU-9 (100) ([2]; hSOD1G93A-UeGFP vehicle minus NU-9 100 mg/kg/day, Tukey's multiple comparisons test): 52.96
percentage of UMNs with vacuolated apical dendrites ([2]; 20 mg/kg/day oral gavage P60–P120): 44% ± 7%
percentage of UMNs with vacuolated apical dendrites ([2]; 100 mg/kg/day oral gavage P60–P120): 23% ± 10%
Rotarod, Predicted (LS) mean ([3]; P60, mixed-effects analysis): 260
Rotarod, Predicted (LS) mean ([3]; P90, mixed-effects analysis): 216
Rotarod, Predicted (LS) mean ([3]; P120, mixed-effects analysis): 165.8
Rotarod, Average ([3]; P60): 267.889
Rotarod, Average ([3]; P90): 232.556
Rotarod, Average ([3]; P120): 178.444
rotarod test, latency to fall ([3]; prpTDP‐43^A315T‐UeGFP mice, 100 mg/kg/day, after 30 days of treatment): 232.6 ± 18.1 s
